In ChEMBL document CHEMBL1135329, “DNA binding ligands with excellent antibiotic potency against drug-resistant gram-positive bacteria” (Bioorg Med Chem Lett, 2002):
In brackets after ≈: the same amount, converted by molar mass.

The molecules below were run on Candida albicans (assay: Antifungal activity was determined against Candida albicans). Details: not given.
Assay type: functional

Row | SMILES | MIC [µg/mL]
1 | Cn1cc(NC(=O)c2cc(NC(=O)c3cc(NC(=O)c4nsc(NCCCO)c4Cl)cn3C)cn2C)cc1C(=O)NCCN1CCOCC1 | > 32
2 | Cn1cc(NC(=O)c2cc(NC(=O)c3cc(NC(=O)c4nsc(NCCCNC5CCCCC5)c4Cl)cn3C)cn2C)cc1C(=O)NCCCNC1CCCCC1 | 16 (≈ 19.5 µM)
3 | CCOCCCNC(=O)c1cc(NC(=O)c2cc(NC(=O)c3cc(NC(=O)c4nsc(NCCN5CCOCC5)c4Cl)cn3C)cn2C)cn1C | > 32
4 | CN(C)CCCNC(=O)c1cc(NC(=O)c2cc(NC(=O)c3cc(NC(=O)c4nsc(NCCCCCCCN)c4Cl)cn3C)cn2C)cn1C | > 32
5 | CCOCCCNc1snc(C(=O)Nc2cc(C(=O)Nc3cc(C(=O)Nc4cc(C(=O)NCCN5CCOCC5)n(C)c4)n(C)c3)n(C)c2)c1Cl | > 32

What follows are molecules tested on Escherichia coli (assay: Binding to the sequence 5'-ACAATTAA-3', a site proximal to the […] RNA polymerase subunit binding site within the Escherichia coli Trc promoter.). Details: read-out: Kd app.
Assay type: functional

Row | SMILES | Kd [nM]
6 | Cn1cc(NC(=O)c2cc(NC(=O)c3cc(NC(=O)c4nsc(NCCCO)c4Cl)cn3C)cn2C)cc1C(=O)NCCN1CCOCC1 | 1.03
7 | Cn1cc(NC(=O)c2cc(NC(=O)c3cc(NC(=O)c4nsc(NCCCNC5CCCCC5)c4Cl)cn3C)cn2C)cc1C(=O)NCCCNC1CCCCC1 | 1.19
8 | CCOCCCNC(=O)c1cc(NC(=O)c2cc(NC(=O)c3cc(NC(=O)c4nsc(NCCN5CCOCC5)c4Cl)cn3C)cn2C)cn1C | 83.3
9 | CN(C)CCCNC(=O)c1cc(NC(=O)c2cc(NC(=O)c3cc(NC(=O)c4nsc(NCCCCCCCN)c4Cl)cn3C)cn2C)cn1C | 1.3
10 | CCOCCCNc1snc(C(=O)Nc2cc(C(=O)Nc3cc(C(=O)Nc4cc(C(=O)NCCN5CCOCC5)n(C)c4)n(C)c3)n(C)c2)c1Cl | 1.34

What follows are molecules tested on Enterococcus faecalis (assay: Antimicrobial activity was determined against vancomycin-resistant Enterococcus faecalis (VREF 51559)). Details: not given.
Assay type: functional

Row | SMILES | MIC [µg/mL]
11 | Cn1cc(NC(=O)c2cc(NC(=O)c3cc(NC(=O)c4nsc(NCCCO)c4Cl)cn3C)cn2C)cc1C(=O)NCCN1CCOCC1 | 0.5 (≈ 0.699 µM)
12 | Cn1cc(NC(=O)c2cc(NC(=O)c3cc(NC(=O)c4nsc(NCCCNC5CCCCC5)c4Cl)cn3C)cn2C)cc1C(=O)NCCCNC1CCCCC1 | 2 (≈ 2.43 µM)
13 | CCOCCCNC(=O)c1cc(NC(=O)c2cc(NC(=O)c3cc(NC(=O)c4nsc(NCCN5CCOCC5)c4Cl)cn3C)cn2C)cn1C | 4 (≈ 5.38 µM)
14 | CN(C)CCCNC(=O)c1cc(NC(=O)c2cc(NC(=O)c3cc(NC(=O)c4nsc(NCCCCCCCN)c4Cl)cn3C)cn2C)cn1C | 1 (≈ 1.35 µM)
15 | CCOCCCNc1snc(C(=O)Nc2cc(C(=O)Nc3cc(C(=O)Nc4cc(C(=O)NCCN5CCOCC5)n(C)c4)n(C)c3)n(C)c2)c1Cl | 2 (≈ 2.69 µM)

Each molecule was assayed on Enterococcus faecalis (assay: Antimicrobial activity was determined against vancomycin-susceptible Enterococcus faecalis (VSEF 29212)). Details: not given.
Assay type: functional

Row | SMILES | MIC [µg/mL]
16 | Cn1cc(NC(=O)c2cc(NC(=O)c3cc(NC(=O)c4nsc(NCCCO)c4Cl)cn3C)cn2C)cc1C(=O)NCCN1CCOCC1 | 0.125 (≈ 0.175 µM)
17 | Cn1cc(NC(=O)c2cc(NC(=O)c3cc(NC(=O)c4nsc(NCCCNC5CCCCC5)c4Cl)cn3C)cn2C)cc1C(=O)NCCCNC1CCCCC1 | 2 (≈ 2.43 µM)
18 | CCOCCCNC(=O)c1cc(NC(=O)c2cc(NC(=O)c3cc(NC(=O)c4nsc(NCCN5CCOCC5)c4Cl)cn3C)cn2C)cn1C | 16 (≈ 21.5 µM)
19 | CN(C)CCCNC(=O)c1cc(NC(=O)c2cc(NC(=O)c3cc(NC(=O)c4nsc(NCCCCCCCN)c4Cl)cn3C)cn2C)cn1C | 8 (≈ 10.8 µM)
20 | CCOCCCNc1snc(C(=O)Nc2cc(C(=O)Nc3cc(C(=O)Nc4cc(C(=O)NCCN5CCOCC5)n(C)c4)n(C)c3)n(C)c2)c1Cl | 0.25 (≈ 0.336 µM)

Each molecule was assayed on Staphylococcus aureus (assay: Antimicrobial activity was determined against methicillin-resistant Staphylococcus aureus (MRSA 27660)). Details: not given.
Assay type: functional

Row | SMILES | MIC [µg/mL]
21 | Cn1cc(NC(=O)c2cc(NC(=O)c3cc(NC(=O)c4nsc(NCCCO)c4Cl)cn3C)cn2C)cc1C(=O)NCCN1CCOCC1 | 2 (≈ 2.8 µM)
22 | Cn1cc(NC(=O)c2cc(NC(=O)c3cc(NC(=O)c4nsc(NCCCNC5CCCCC5)c4Cl)cn3C)cn2C)cc1C(=O)NCCCNC1CCCCC1 | 1 (≈ 1.22 µM)
23 | CCOCCCNC(=O)c1cc(NC(=O)c2cc(NC(=O)c3cc(NC(=O)c4nsc(NCCN5CCOCC5)c4Cl)cn3C)cn2C)cn1C | 16 (≈ 21.5 µM)
24 | CN(C)CCCNC(=O)c1cc(NC(=O)c2cc(NC(=O)c3cc(NC(=O)c4nsc(NCCCCCCCN)c4Cl)cn3C)cn2C)cn1C | 32 (≈ 43.1 µM)
25 | CCOCCCNc1snc(C(=O)Nc2cc(C(=O)Nc3cc(C(=O)Nc4cc(C(=O)NCCN5CCOCC5)n(C)c4)n(C)c3)n(C)c2)c1Cl | 2 (≈ 2.69 µM)

Each molecule was assayed on Staphylococcus aureus (assay: Antimicrobial activity was determined against methicillin-susceptible S. aureus(MSSA 29213)). Details: not given.
Assay type: functional

Row | SMILES | MIC [µg/mL]
26 | Cn1cc(NC(=O)c2cc(NC(=O)c3cc(NC(=O)c4nsc(NCCCO)c4Cl)cn3C)cn2C)cc1C(=O)NCCN1CCOCC1 | 1 (≈ 1.4 µM)
27 | Cn1cc(NC(=O)c2cc(NC(=O)c3cc(NC(=O)c4nsc(NCCCNC5CCCCC5)c4Cl)cn3C)cn2C)cc1C(=O)NCCCNC1CCCCC1 | 1 (≈ 1.22 µM)
28 | CCOCCCNC(=O)c1cc(NC(=O)c2cc(NC(=O)c3cc(NC(=O)c4nsc(NCCN5CCOCC5)c4Cl)cn3C)cn2C)cn1C | 16 (≈ 21.5 µM)
29 | CN(C)CCCNC(=O)c1cc(NC(=O)c2cc(NC(=O)c3cc(NC(=O)c4nsc(NCCCCCCCN)c4Cl)cn3C)cn2C)cn1C | 32 (≈ 43.1 µM)
30 | CCOCCCNc1snc(C(=O)Nc2cc(C(=O)Nc3cc(C(=O)Nc4cc(C(=O)NCCN5CCOCC5)n(C)c4)n(C)c3)n(C)c2)c1Cl | 1 (≈ 1.35 µM)

These molecules were tested on Streptococcus pneumoniae (assay: Antimicrobial activity was determined against penicillin-resistant Streptococcus pneumoniae (PRSP 51422)). Details: not given.
Assay type: functional

Row | SMILES | MIC [µg/mL]
31 | Cn1cc(NC(=O)c2cc(NC(=O)c3cc(NC(=O)c4nsc(NCCCO)c4Cl)cn3C)cn2C)cc1C(=O)NCCN1CCOCC1 | 0.031 (≈ 0.0433 µM)
32 | Cn1cc(NC(=O)c2cc(NC(=O)c3cc(NC(=O)c4nsc(NCCCNC5CCCCC5)c4Cl)cn3C)cn2C)cc1C(=O)NCCCNC1CCCCC1 | 0.5 (≈ 0.608 µM)
33 | CCOCCCNC(=O)c1cc(NC(=O)c2cc(NC(=O)c3cc(NC(=O)c4nsc(NCCN5CCOCC5)c4Cl)cn3C)cn2C)cn1C | 1 (≈ 1.35 µM)
34 | CN(C)CCCNC(=O)c1cc(NC(=O)c2cc(NC(=O)c3cc(NC(=O)c4nsc(NCCCCCCCN)c4Cl)cn3C)cn2C)cn1C | 16 (≈ 21.6 µM)
35 | CCOCCCNc1snc(C(=O)Nc2cc(C(=O)Nc3cc(C(=O)Nc4cc(C(=O)NCCN5CCOCC5)n(C)c4)n(C)c3)n(C)c2)c1Cl | 0.125 (≈ 0.168 µM)

These molecules were tested on Streptococcus pneumoniae (assay: Antimicrobial activity was determined against penicillin-susceptible Streptococcus pneumoniae (PSSP 49619)). Details: not given.
Assay type: functional

Row | SMILES | MIC [µg/mL]
36 | Cn1cc(NC(=O)c2cc(NC(=O)c3cc(NC(=O)c4nsc(NCCCO)c4Cl)cn3C)cn2C)cc1C(=O)NCCN1CCOCC1 | 0.5 (≈ 0.699 µM)
37 | Cn1cc(NC(=O)c2cc(NC(=O)c3cc(NC(=O)c4nsc(NCCCNC5CCCCC5)c4Cl)cn3C)cn2C)cc1C(=O)NCCCNC1CCCCC1 | 2 (≈ 2.43 µM)
38 | CCOCCCNC(=O)c1cc(NC(=O)c2cc(NC(=O)c3cc(NC(=O)c4nsc(NCCN5CCOCC5)c4Cl)cn3C)cn2C)cn1C | 0.5 (≈ 0.673 µM)
39 | CN(C)CCCNC(=O)c1cc(NC(=O)c2cc(NC(=O)c3cc(NC(=O)c4nsc(NCCCCCCCN)c4Cl)cn3C)cn2C)cn1C | 32 (≈ 43.1 µM)
40 | CCOCCCNc1snc(C(=O)Nc2cc(C(=O)Nc3cc(C(=O)Nc4cc(C(=O)NCCN5CCOCC5)n(C)c4)n(C)c3)n(C)c2)c1Cl | 0.25 (≈ 0.336 µM)
